These are literature values, as cited in PMC10649572 (International Journal of Molecular Sciences, 2023).

For the data set, the target named is T1, CaM^WT (Homo sapiens, UniProt P0DP23).
T1 construct: made in house; host or cells: Escherichia coli BL21-CodonPlus(DE3)
The following applies: in the presence and absence of Ca^2+; ref [38].

No end group written: not given here.

In the case of LMRMLSLKSLKKQMKKV [Peptide F], the “interaction with CaM” value is “significant affinity”.
